Experimental findings from patent US10882856B2 (BeiGene, Ltd., priority 2017, dated 2021) are described below.

SMILES strings stand for the structures. Where only a bound is given, the exact number is not on record here.

The target of assay [1] is T1, TDO (Homo sapiens, UniProt P48775).
T1 construct: His tag (C); made in house; host or cells: E. coli
The experiment in a line: TDO enzymatic assay. Format: biochemical. To be noted: read-out: Enzyme IC50 TDO. The gist of the method:
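Recombinant C-terminally His-tagged TDO purified from E. coli (100 nM) was tested with 0.5 mM L-tryptophan (Km concentration). Otherwise the IDO1 enzymatic set-up was used: ascorbic acid, methylene blue, catalase, and potassium phosphate pH 7.5 with BSA, incubated 1.5 hours. N'-formylkynurenine absorbance was read continuously at 321 nm, and activity was taken as the slope. IC50 was calculated from remaining enzyme activity across increasing compound concentrations.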

In assay [2] the target is T2, IDO1 (Homo sapiens, UniProt P14902). The experiment in a line: Hela cell-based IDO1 assay. To be noted: Hela cells. The gist of the method: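 Kynurenine was measured at 480 nm in trichloroacetic acid-deproteinised supernatant after adding 2% 4-(dimethylamino)benzaldehyde. This supernatant came from HeLa cells seeded at 8000 per well in 96-well plates in phenol red-free DMEM with 10% FBS and, from 4 hours after seeding, exposed for 48 hours at 37 °C, 5% CO2 to DMSO-diluted compound dilutions, IFN-γ (final 100 ng/mL) and 0.4 mM L-Trp. The resulting data were fitted with a four-parameter logistic model in XLfit. Potency was taken from those fits.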

For assay [3], the target named is T3, cellular TDO2 in HEK293-TDO2 cells (Homo sapiens, UniProt P48775).
T3 construct: expressed in transfected cells; host or cells: HEK293 (ATCC), stably transfected
In words: 293-TDO2 cell-based assay (Kyn colorimetric). To be noted: 48 hours of incubation. The gist of the method: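 Kyn formed from L-Trp was read colorimetrically at 480 nm (TCA deproteinisation, then 2% 4-(dimethylamino)benzaldehyde). Compounds were added to 293-TDO2 cells 4 h post-seeding and left 48 h at 37° C. A four-parameter logistic model gave IC50 values.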

For assay [4], the target named is T2, IDO1. In words: IDO1 enzymatic assay. In kind it is biochemical. Also noted: His tag (N); made in house; host or cells: E. coli. To be noted: read-out: Enzyme IC50 IDO1. The gist of the method:
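Assays were run in 50 mM potassium phosphate pH 7.5 with 0.1% BSA for 1.5 hours at 24 °C. Each contained 50 nM E. coli-purified, N-terminally His-tagged IDO1, compound, 1.3 mM D-tryptophan, 5 mM L-ascorbic acid, methylene blue and 0.4 mg/mL catalase. IC50 was calculated from remaining enzyme activity across a rising compound series, with activity taken as the slope of N'-formylkynurenine formation read continuously at 321 nm for 1 hour.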

T3 sequence (P48775 whole entry): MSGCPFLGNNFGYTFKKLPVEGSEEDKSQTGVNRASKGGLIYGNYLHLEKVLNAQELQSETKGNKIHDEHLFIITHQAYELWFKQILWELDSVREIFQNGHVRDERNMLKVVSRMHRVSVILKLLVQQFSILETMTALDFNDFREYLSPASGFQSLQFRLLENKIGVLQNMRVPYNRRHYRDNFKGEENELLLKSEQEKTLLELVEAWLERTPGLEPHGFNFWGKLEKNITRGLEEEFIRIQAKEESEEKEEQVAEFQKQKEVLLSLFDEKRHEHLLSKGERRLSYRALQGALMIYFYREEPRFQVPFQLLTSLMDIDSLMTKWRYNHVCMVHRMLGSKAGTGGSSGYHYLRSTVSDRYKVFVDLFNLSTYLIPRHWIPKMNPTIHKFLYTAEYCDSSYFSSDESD
T1 sequence (P48775 whole entry): as above
T2 sequence (P14902 whole entry): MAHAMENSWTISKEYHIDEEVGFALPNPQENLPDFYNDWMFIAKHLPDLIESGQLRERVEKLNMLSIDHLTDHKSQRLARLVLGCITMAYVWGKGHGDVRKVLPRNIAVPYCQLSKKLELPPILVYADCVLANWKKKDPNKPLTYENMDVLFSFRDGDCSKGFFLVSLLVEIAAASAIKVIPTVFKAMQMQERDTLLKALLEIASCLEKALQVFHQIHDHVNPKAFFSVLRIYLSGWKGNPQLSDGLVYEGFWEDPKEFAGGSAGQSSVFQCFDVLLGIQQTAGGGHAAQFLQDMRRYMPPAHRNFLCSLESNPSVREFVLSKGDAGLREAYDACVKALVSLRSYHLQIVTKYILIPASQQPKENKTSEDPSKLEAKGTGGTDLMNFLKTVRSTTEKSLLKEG

`O[C@H](c1c(C2CC2)ccn2cncc12)[C@H]1CC[C@H](c2ccc(Cl)cc2)CC1` (single isomer, unassigned) [Example C102a]: the IC50 – broadly, the concentration that inhibits the measured activity by half – in assay [1] came out at 16 µM; in assay [4], 0.036 µM. Moreover, the EC50 (usually the concentration at which the effect is half-maximal) was 0.471 µM in assay [2] and more than 10 µM in assay [3].

With `COCCOc1ccc([C@H]2CC[C@H]([C@H](O)c3c(C4CC4)ccn4cncc34)CC2)cc1` (single isomer, unassigned) [Example C103a], the IC50 came out at 10 µM in assay [1] and 0.021 µM in assay [4]. For the same compound, the values for the EC50 in assay [2] and in assay [3] were 0.167 µM and more than 10 µM, respectively.

With `Oc1ccc([C@H]2CC[C@H](C(O)c3c(C4CC4)ccn4cncc34)CC2)cc1` (single isomer, unassigned) [Example C104a], the figures for the IC50 in assay [1] and in assay [4] were 2.5 µM and 0.018 µM, respectively. The EC50 in assay [2] was 0.05 µM; in assay [3], more than 10 µM.

With `OC(c1c(C2CC2)ccc2cncn12)C1CCC(c2ccnc3c(F)cccc23)CC1` (stereo not drawn) [Example D164, (6-cyclopropylimidazo[1,5-a]pyridin-5-yl)(4-(8-fluoroquinolin-4-yl)cyclohexyl)methanol], the EC50 in assay [2] was 0.051 µM; in assay [3], more than 10 µM. The IC50 in assay [4] is 0.033 µM.

On to `NS(=O)(=O)Nc1ccc([C@H]2CC[C@H]([C@H](O)c3c(C4CC4)ccc4cncn34)CC2)cc1` [Example D165, 1-(4-((1 S,4r)-4-((S)-(6-cyclopropylimidazo[1,5-a]pyridin-5-yl)(hydroxy)methyl)cyclohexyl)phenyl) sulfuric diamide], for which the EC50 was 0.344 µM in assay [2] and more than 10 µM in assay [3]. For the same compound, the concentration for half-maximal inhibition (IC50) in assay [4] was found to be 0.028 µM.

For `CC(C)c1ccc2cncn2c1C(O)C1CCC(c2ccc(F)cc2)CC1` (stereo not drawn) [Example D166, (4-(4-fluorophenyl)cyclohexyl)(6-isopropylimidazo[1,5-a]pyridin-5-yl)methanol], the results for the EC50 in assay [2] and in assay [3] were 0.029 µM and more than 10 µM, respectively. Also, the IC50 in assay [4] was found to be 0.041 µM.

`CC(C)c1ccc2cncn2c1C(O)C1CCC(c2cccc(F)c2)CC1` (stereo not drawn) [Example D167, (4-(3-fluorophenyl)cyclohexyl)(6-isopropylimidazo[1,5-a]pyridin-5-yl)methanol]: the EC50 was 0.04 µM in assay [2] and more than 10 µM in assay [3]. The IC50 in assay [4] turned out to be 0.069 µM.

In the case of `CC(C)c1ccc2cncn2c1C(O)C1CCC(c2cccc(Cl)c2)CC1` (stereo not drawn) [Example D168, (4-(3-chlorophenyl)cyclohexyl)(6-isopropylimidazo[1,5-a]pyridin-5-yl)methanol], the EC50 is 0.042 µM in assay [2] and more than 10 µM in assay [3]. Besides, the concentration for half-maximal inhibition (IC50) in assay [4] was found to be 0.038 µM.

In the case of `COc1cccc(C2CCC(C(O)c3c(C(C)C)ccc4cncn34)CC2)c1` (stereo not drawn) [Example D169, (6-isopropylimidazo[1,5-a]pyridin-5-yl)(4-(3-methoxyphenyl)cyclohexyl)methanol], the figures for the EC50 in assay [2] and in assay [3] were 0.022 µM and more than 10 µM, respectively. Further, in assay [4], the IC50 turned out to be 0.028 µM.

As to `OC(c1c(C2CC2)ccc2cncn12)C1CCN(c2ccccc2)CC1` (stereo not drawn) [Example D170, (6-cycloropylimidazo[1,5-a]pyridin-5-yl)(1-phenylpiperidin-4-yl)methanol], the EC50 in assay [2] is 0.043 µM; in assay [3], more than 10 µM. In addition, the IC50 in assay [4] was 0.021 µM.

For `OC(c1c(C2CC2)ccc2cncn12)C1CCN(c2ccc(F)cc2)CC1` (stereo not drawn) [Example D171, (6-cyclopropylimidazo[1,5-a]pyridin-5-yl)(1-(4-fluorophenyl)piperidin-4-yl)methanol], the EC50 is 0.036 µM in assay [2] and more than 10 µM in assay [3]. In assay [4], the IC50 came to 0.022 µM.

`OC(c1c(C2CC2)ccc2cncn12)C1CCN(c2cccc(F)c2)CC1` (stereo not drawn) [Example D172]: the values for the EC50 in assay [2] and in assay [3] were 0.058 µM and more than 10 µM, respectively. Further, in assay [4], the IC50 came to 0.028 µM.

Take `O[C@H](c1c(C2CC2)ccc2cncn12)C1CCN(c2cccc(F)c2)CC1` [Example D172a]: the EC50 in assay [2] was 0.023 µM; in assay [3], more than 10 µM. In assay [4], the IC50 was 0.014 µM.

For `O[C@@H](c1c(C2CC2)ccc2cncn12)C1CCN(c2cccc(F)c2)CC1` [Example D172b], the concentration giving a half-maximal response (EC50) in assay [2] was 5.4 µM; in assay [3], more than 10 µM. In assay [4], the IC50 was 2.7 µM.

Turning to `OC(c1c(C2CC2)ccc2cncn12)C1CCN(c2cccc(Cl)c2)CC1` (stereo not drawn) [Example D173, (1-(3-chlorophenyl)piperidin-4-yl)(6-cyclopropylimidazo[15-a]pyridin-5-yl)methanol], the EC50 was 0.065 µM in assay [2] and more than 10 µM in assay [3]. Moreover, the IC50 in assay [4] is 0.03 µM.

As to `OC(c1c(C2CC2)ccc2cncn12)C1CCN(c2ccc(Cl)cc2)CC1` (stereo not drawn) [Example D174, (1-(4-chlorophenyl)piperidin-4-yl)(6-cyclopropylimidazo[1,5-a]pyridin-5-yl)methanol], the EC50 in assay [2] is 0.167 µM; in assay [3], more than 10 µM. The IC50 in assay [4] turned out to be 0.038 µM.

For the compound `OC(c1c(C2CC2)ccc2cncn12)C1CCN(c2ccc(F)c3ncccc23)CC1` (stereo not drawn) [Example D175, (6-cyclopropylimidazo[1,5-a]pyridin-5-yl)(1-(8-fluoroquinolin-5-yl)piperidin-4-yl)methanol], the EC50 in assay [2] is 0.021 µM; in assay [3], more than 10 µM. The IC50 in assay [4] amounted to 0.022 µM.

On to `Cn1cc(-c2ccc(N3CCC(C(O)c4c(C5CC5)ccc5cncn45)CC3)cc2)cn1` (stereo not drawn) [Example D176, (6-cyclopropylimidazo[1,5-a]pyridin-5-yl)(1-(4-(1-methyl-1H-pyrazol-4-yl)phenyl)piperidin-4-yl)methanol], for which the EC50 is 0.109 µM in assay [2] and more than 10 µM in assay [3]. For the same compound, in assay [4], the IC50 is 0.025 µM.

For the compound `OCCn1cc(-c2ccc(N3CCC(C(O)c4c(C5CC5)ccc5cncn45)CC3)cc2)cn1` (stereo not drawn) [Example D177], the EC50 in assay [2] is 0.107 µM; in assay [3], more than 10 µM. Besides, in assay [4], the IC50 was 0.025 µM.

Regarding `OC(c1c(C2CC2)ccc2cncn12)C1CCN(c2ccc(Cl)c3ncccc23)CC1` (stereo not drawn) [Example D178, (1-(8-chloroquinolin-5-yl)piperidin-4-yl)(6-cyclopropylimidazo[1,5-a]pyridin-5-yl)methanol], the EC50 was 0.04 µM in assay [2] and more than 10 µM in assay [3]. Besides, the IC50 in assay [4] was determined as 0.024 µM.

Regarding `OC(c1c(C2CC2)ccc2cncn12)C1CCN(c2ccc3nccc(Cl)c3c2)CC1` (stereo not drawn) [Example D179, (1-(4-chloroquinolin-6-yl)piperidin-4-yl)(6-cyclopropylimidazo[1,5-a]pyridin-5-yl)methanol], the EC50 was 0.187 µM in assay [2] and more than 10 µM in assay [3]. Further, the IC50 in assay [4] is 0.026 µM.

Take `OC(c1c(C2CC2)ccc2cncn12)C1CCN(c2cccc3ncncc23)CC1` (stereo not drawn) [Example D180, (6-cyclopropylimidazo[1,5-a]pyridin-5-yl)(1-(quinazolin-5-yl)piperidin-4-yl)methanol]: the figures for the EC50 in assay [2] and in assay [3] were 0.04 µM and more than 10 µM, respectively. The IC50 in assay [4] was determined as 0.03 µM.

Turning to `OC(c1c(C2CC2)ccc2cncn12)C1CCN(c2ccc3ncncc3c2)CC1` (stereo not drawn) [Example D181, (6-cyclopropylimidazo[1,5-a]pyridin-5-yl)(1-(quinazolin-6-yl)piperidin-4-yl)methanol], the EC50 in assay [2] was 1.02 µM; in assay [3], more than 10 µM. Also, the IC50 in assay [4] stood at 0.031 µM.

As to `OC(c1cc(Cl)cc2cncn12)C1CCC(c2ccc(Cl)cc2)CC1` (stereo not drawn) [Example E101, (7-chloroimidazo[1,5-a]pyridin-5-yl)(4-(4-chlorophenyl)cyclohexyl)methanol], the EC50 in assay [2] is 6.31 µM; in assay [3] it was more than 10 µM. Further, the IC50 in assay [4] turned out to be 0.062 µM.

As for `OC(c1cc(C2CC2)cc2cncn12)C1CCC(c2ccc(Cl)cc2)CC1` (stereo not drawn) [Example E102, (4-(4-chlorophenyl)cyclohexyl)(7-cyclopropylimidazo[1,5-a]pyridin-5-yl)methanol], the EC50 is 4.84 µM in assay [2] and more than 10 µM in assay [3]. Further, the IC50 in assay [4] was determined as 0.27 µM.

As to `OC(c1cc(Cl)cc2cncn12)C1CCC(c2cccc3ccccc23)CC1` (stereo not drawn) [Example E103, (7-chloroimidazo[1,5-a]pyridin-5-yl)(4-(naphthalen-1-yl)cyclohexyl)methanol], the EC50 in assay [2] is 2.32 µM; in assay [3] it was more than 10 µM. Also, in assay [4], the IC50 came to 0.043 µM.

For `OC(c1cc(Cl)cc2cncn12)C1CCC(c2ccc3ccccc3c2)CC1` (stereo not drawn) [Example E104, (7-chloroimidazo[1,5-a]pyridin-5-yl)(4-(naphthalen-2-yl)cyclohexyl)methanol], the EC50 was 5.44 µM in assay [2] and more than 10 µM in assay [3]. In addition, the IC50 in assay [4] was determined as 0.08 µM.
